Patent publication US20190322643A1 (Georgia State University Research Foundation, Inc., priority 2016, published 2019)

Target: T1, Mouse histone methyltransferase G9a (969-1263) (Mus musculus, UniProt Q9Z148)
T1 construct: The 6His-sumo mG9a (969-1263) protein was purified using the following procedure; 6His-sumo (cleaved yes); made in house; host or cells: Escherichia coli BL21 (DE3)
T1 sequence (Q9Z148 969-1263): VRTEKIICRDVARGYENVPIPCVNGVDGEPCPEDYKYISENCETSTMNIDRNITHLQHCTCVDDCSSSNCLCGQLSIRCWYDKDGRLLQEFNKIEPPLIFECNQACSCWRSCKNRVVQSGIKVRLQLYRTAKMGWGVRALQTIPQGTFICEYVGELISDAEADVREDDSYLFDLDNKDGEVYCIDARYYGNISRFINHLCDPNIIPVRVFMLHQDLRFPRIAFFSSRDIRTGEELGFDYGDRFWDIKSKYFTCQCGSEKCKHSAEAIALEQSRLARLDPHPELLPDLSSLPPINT
Experiment: MALDI-TOF methylation study of G9a inhibition
Assay type: biochemical
Details: inhibitors at 5 μM concentration for 30 min

inhibition at 5 µM: 17.9 ± 5.51%
Compound: CN1CCCN(c2nc(NC3CCN(Cc4ccccc4)CC3)c3ccc(OCCCCCCC(=O)NO)cc3n2)CC1 [Compound 30]
